Data as given in EPA's ToxValDB 9.5 (doi:10.2903/j.efsa.2017.4981).
“And” between values parts separate entries of the source, which are not always exact repeats. Equal entries are not always repeated.

What was measured:
Apis mellifera = conditions: acute, duration: 48 hours, mortality
Plant = conditions: chronic/long-term; duration: 4 months
Daphnia magna = conditions: chronic/long-term; duration: 21 days; reproduction
Anas platyrhynchos = conditions: reproductive
Canidae = conditions: oral, Dog Other, body weight
Typhlodromus pyri = conditions: acute; mortality
Tagia sp. = conditions: chronic/long-term, duration: 56 days
Oncorhynchus mykiss = conditions: mortality
Rattus norvegicus = conditions: for LD50: acute, mortality
Folsomia candida = conditions: chronic/long-term; duration: 28 days; mortality
[1] = chronic, duration: 2 years, oral, diet, organ weight
[2] = reproduction developmental, reproduction
[3] = subchronic, duration: 90 days, oral, diet, F, organ weight

With `CCOCCN(C(=O)CCl)C(=C(C)C)c1ccccc1` [Pethoxamid] the LD50 (Apis mellifera; dermal) was over 200 µg/piece, the LD50 (Apis mellifera; oral, unspecified) was over 200 µg/piece and the NOAEC (Plant) was 8 µg/L. It also gave an LD50 (Colinus virginianus; acute, oral, mortality) of 872 mg/kg-day, an NOEL (Colinus virginianus; reproduction developmental) of 100 mg/kg-day and an NOEC (Daphnia magna) of 2.8 mg/L. The NOEL (Anas platyrhynchos) was 396 mg/kg-day, the NOAEL (Canidae; chronic, duration: 1 years) was 2 mg/kg-day and the NOAEL (Canidae; subchronic, duration: 90 days) was 8 mg/kg-day. The LEC (Typhlodromus pyri) was at most 1200 g/ha, the NOEC (Tagia sp.; reproduction) was 0.8 mg/kg and the LC50 (Oncorhynchus mykiss; acute, duration: 96 hours) was 2.2 µg/mL and 2.19 µg/mL. For the same molecule, the NOEC (Oncorhynchus mykiss; chronic/long-term, duration: 94 days) was 0.0924 mg/L, the LD50 (Rattus norvegicus; oral, M) was 983 mg/kg-day and the NOAEL (Rattus norvegicus; [1]) was 1 mg/kg-day. For the same molecule, the NOAEL (Rattus norvegicus; reproduction developmental, oral, diet, F, reproduction) was 24 mg/kg-day, the NOAEL (Rattus norvegicus; [2]) was 8 mg/kg-day and the NOAEL (Rattus norvegicus; [3]) was 8 mg/kg-day.

`CC(C)=C(c1ccccc1)N(CC(=O)O)C(=O)CS(=O)(=O)O` [N-(2-Methyl-1-phenylprop-1-en-1-yl)-N-(sulfoacetyl)glycine] gave an NOEC (Folsomia candida) of 100 mg/kg and an NOEC (Tagia sp.; growth) of 60 mg/kg.

`CCOCCN(C(C)=O)C(=C(C)C)c1ccccc1` gave an NOEC (Folsomia candida) of 50 mg/kg, an NOAEL (Canidae; subchronic, duration: 90 days) of 8 mg/kg-day and an NOEC (Tagia sp.; growth) of 30 mg/kg. It also gave an NOAEL (Rattus norvegicus; [1]) of 1 mg/kg-day, an NOAEL (Rattus norvegicus; [2]) of 8 mg/kg-day and an NOAEL (Rattus norvegicus; [3]) of 8 mg/kg-day.

Molecule `CCOCCN(C(=O)CS(=O)(=O)O)C(=C(C)C)c1ccccc1` has an NOEC (Folsomia candida) of 93.3 mg/kg, an NOEC (Tagia sp.; growth) of 100 mg/kg and an LD50 (Rattus norvegicus; oral) of over 2000 mg/kg-day. It also gave an NOAEL (Rattus norvegicus; short-term, duration: 4 weeks, oral, diet) of 410 mg/kg-day.
